# Measured values: publication PMC4648528, “Interplay between Structure and Charge as a Key to Allosteric Modulation of Human 20S Proteasome by the Basic Fragment of HIV-1 Tat Protein” (PLoS ONE, 2015)
# Read-outs that look alike come from different tables or passages of the source. Square brackets hold non-standard residues; d marks the D form. Ends that are not written are not given here. Peptide text beside a SMILES is read from it. Oic = O=C(O)[C@@H]1C[C@@H]2CCCC[C@@H]2N1; dOic = O=C(O)[C@H]1C[C@H]2CCCC[C@H]2N1; Tic = O=C(O)[C@@H]1Cc2ccccc2CN1; dTic = O=C(O)[C@H]1Cc2ccccc2CN1
# How the values were obtained:
# human 20S proteasome [1] = target: T1, human 20S proteasome; experiment: ChT-L peptidase activity of SDS-activated human 20S proteasome (SucLLVY-MCA); format: biochemical
# T1 construct: isolated from human erythrocytes (Enzo Life Sciences); purchased Enzo Life Sciences; host or cells: human erythrocytes
# Method: Influence of the designed peptides on catalytic properties of the 20S proteasome was tested using the proteasome at a final concentration of 1.5 nM, isolated from human erythrocytes (Enzo Life Sciences) and activated with 0.01% sodium dodecyl sulfate. Succinyl-Leu-Leu-Val-Tyr-4-methylcoumarin-7-amide (SucLLVY-MCA) was employed as a model fluorogenic substrate to determine the activity of ChT-L peptidase. All assays were performed in the 96-well plate format using a reaction volume of 100 uL. Tests were carried out in 50 mM Tris/HCl, pH 8.0 containing 0.5 mM ethylenediamine tetraacetic acid. Stock solutions of the substrates and the tested peptides were prepared by dissolution of the lyophilized compounds in dimethyl sulfoxide (DMSO). The content of DMSO never exceeded 3% of the final reaction volume. Compounds were tested in the concentration range of 0.05–10 μM. The substrate was added at 100 μM final concentration (1% of the volume). The release of an aminomethyl coumarin (AMC) group was followed by measuring fluorescence emission at 460 nm in 2 min. intervals for up to 60 min. at 37°C (Fluoroskan Ascent). The peptidolytic activity was calculated as nanomoles of the released AMC product per mg of CP per second. The half maximal inhibitory concentration expressed in μM concentration was calculated with SigmaPlot 12.3 where exponential equation estimates based on fitting of two or three logistic parameters were employed.
# human 20S proteasome [2] = system: T1, human 20S proteasome; experiment: Peptide degradation test with 20S proteasome (RP-HPLC); format: in vitro ADME
# Method: Susceptibility of the designed modulators to degradation by the 20S proteasome was examined by reversed-phase high-performance liquid chromatography (S10 Fig). The compounds were dissolved in water or DMSO to 10 mM concentration and then diluted with 25 mM Tris buffer containing 0.25 mM EDTA (pH 8.0) to the final concentration of 1 mM. 2.5 μg of human 20S proteasome (Enzo Life Sciences) was added to the mixture, which then, after adjustment of its final volume to 100 μl, was incubated at 37°C for 3 h. The reaction was stopped by adding 5 μl of 10% aqueous trifluoroacetic acid. Next, 40 μl of the mixture, along with the control not containing the 20S, were injected onto C8 Kromasil column (4,6 x 250 mm, 100 Å, 5 μm). […]
# incubation with the proteasome under standard conditions used in our tests. For comparison we also included the degradation profile of Tat1_A4-5,8-9, which was not able to inhibit the proteasome […]
# (1 picture or pasted object on this page, not shown here)
# human 20S proteasome [3] = target: T1, human 20S proteasome; experiment: Microscale thermophoresis with fluorescently labeled human 20S proteasome; format: binding; details: for EC50: MST Hill fit, concentrations listed in nM, read-out: EC50, fitted value (Hill method); for Kd: MST
# Excerpt: Microscale thermophoresis detects changes in the mobility of protein molecules in temperature gradients generated by IR laser radiation. The thermophoretic effect is very sensitive to induced by a ligand binding alterations in the charge, size and/or the hydration shell of a studied protein [39]. Quantification of these changes is based on either intrinsic fluorophores such as tryptophan or covalently bound dyes. Titration of the selected peptides/peptidomimetics to a constant concentration of the fluorescently labeled human 20S proteasome allowed us to determine ligand dissociation constants (Kd), and systematically compare their binding affinity.
# The human 20S proteasome was labeled using monolith NT^TM Protein Labeling Kit RED-NHS (NanoTemper Technologies), according to the protocol provided by the supplier. During the measurements concentration of the labeled protein was kept constant at 3 nM. […] The binding reactions were carried out in 50 mM Tris/HCl buffer containing 0.5 mM EDTA, pH 8.0 with an addition of sodium dodecyl sulfate at the final concentration of 0.005%. Measurements were performed in standard treated capillaries on a Monolith NT.115 system (NanoTemper Technologies). Capillaries were illuminated at 25°C with 80% LED power for 5 s. […] Fluorescence intensities were measured at 6–8 s and 34–36 s, and fluorescence intensity ratios of hot/cold were used as the assay readout. Kd values were determined using the internal evaluation software.
# 20S proteasome = details: cited from earlier work
# Excerpt: Intriguingly, we first identified the importance of structural dynamics of this peptide, when we compared the FTIR spectra collected in liquid and films. […] The best studied and shortest 11-residue PR11 may contain a structural turn and is hypothesized to bind at the outer edge of the proteasomal α ring. Another example is octa-arginine, inhibiting the proteasome peptidase activity in vitro with high- ...
# [4] = ChT-L activity, average of repetitions, read-out: Calculated IC50, Average
# [5] = ChT-L peptidase, 1.5 nM 20S from human erythrocytes activated with 0.01% SDS, 100 μM SucLLVY-MCA, 50 mM Tris/HCl pH 8.0, 0.5 mM EDTA, 37°C, mean (±SD), read-out: IC50
# [6] = ChT-L activity, Repetition 1, read-out: Calculated IC50
# [7] = average of three repetitions, read-out: Kd, Average
Compound,IC50 (human 20S proteasome [1]; [4]),IC50 (human 20S proteasome [1]; [5]),other results
GRAAAAQRRRPS [Tat1_A3-6],4240 nM,4240 nM,–
"GRKAARQAARPS [Tat1_A4-5,8–9]",–,4660 nM,"IC50 (human 20S proteasome [1]; [6]): 4890 nM; IC50 (human 20S proteasome [1]; ChT-L activity, Repetition 2, read-out: Calculated IC50): 3470 nM; IC50 (human 20S proteasome [1]; ChT-L activity, Repetition 3, read-out: Calculated IC50): 4430 nM; Degradation by the 20S proteasome (human 20S proteasome [2]; pH 8): partially degraded by the proteasome"
GRKAAAQRRRPS [Tat1_A4-6],1720 nM,1720 nM,"EC50 (human 20S proteasome [3]; Repetition 1): 12800 ± 0.155 nM; EC50 (human 20S proteasome [3]; Repetition 2): 10600 ± 0.0436 nM; EC50 (human 20S proteasome [3]; Repetition 3): 12000 ± 0.084 nM; Kd (human 20S proteasome [3]; Repetition2, read-out: Kd): 10600 nM; Kd (human 20S proteasome [3]; [7]): 12100 nM"
"N=C(N)NCCC[C@H](NC(=O)CN)C(=O)N[C@@H](CCCCN)C(=O)N1Cc2ccccc2C[C@@H]1C(=O)N1[C@H](C(=O)N[C@@H](CCCNC(=N)N)C(=O)N[C@@H](CCC(N)=O)C(=O)N2Cc3ccccc3C[C@H]2C(=O)N2[C@@H](C(=O)N[C@@H](CCCNC(=N)N)C(=O)N3CCC[C@H]3C(=O)N[C@@H](CO)C(=O)O)C[C@H]3CCCC[C@H]32)C[C@@H]2CCCC[C@@H]21 [Tat1_4-5TO,8-9TOD] (H-GRK[dTic][Oic]RQ[Tic][dOic]RPS-OH)",245 nM,240 nM,"Kd (human 20S proteasome [3]; read-out: Dissociation constants Kd calculated on the basis of the thermophoresis curves, 3 nM labeled 20S, 50 mM Tris/HCl, 0.5 mM EDTA pH 8.0, 0.005% SDS, 25°C, mean (±SD)): 8380 nM"
N=C(N)NCCC[C@H](NC(=O)CN)C(=O)N[C@@H](CCCCN)C(=O)N1Cc2ccccc2C[C@@H]1C(=O)N1[C@H](C(=O)N[C@@H](CCCNC(=N)N)C(=O)N[C@@H](CCC(N)=O)C(=O)N[C@@H](CCCNC(=N)N)C(=O)N[C@@H](CCCNC(=N)N)C(=O)N[C@@H](CCCNC(=N)N)C(=O)N2CCC[C@H]2C(=O)N[C@@H](CO)C(=O)O)C[C@@H]2CCCC[C@@H]21 [Tat1_4-5TO] (HELM PEPTIDE1{G.R.K.[O=C([C@H]1Cc2ccccc2CN1[*:1])[*:2]].[O=C([C@@H]1C[C@@H]2CCCC[C@@H]2N1[*:1])[*:2]].R.Q.R.R.R.P.S}$$$$V2.0),239 nM,240 nM,EC50 (human 20S proteasome [3]; Repetition 1): 8730 ± 0.0212 nM; EC50 (human 20S proteasome [3]; Repetition 2): 9260 ± 0.0182 nM; EC50 (human 20S proteasome [3]; Repetition 3): 8730 ± 0.0265 nM; Kd (human 20S proteasome [3]; [7]): 8910 nM
GRKKAAARRRPS [Tat1_A5-7],315 nM,310 nM,–
GRKKRRQAAAPS [Tat1_A8-10],2520 nM,2520 nM,IC50 (human 20S proteasome [1]; [6]): 1990 nM; EC50 (human 20S proteasome [3]; Repetition 1): 13800 ± 0.227 nM; EC50 (human 20S proteasome [3]; Repetition 2): 12800 ± 0.251 nM; EC50 (human 20S proteasome [3]; Repetition 3): 13800 ± 0.218 nM; Kd (human 20S proteasome [3]; [7]): 13500 nM
GRKAARQRRRPS [Tat1_A4-5],264 nM,260 nM,–
GRKKRRAAAAPS [Tat1_A7-10],2790 nM,2790 nM,–
GRKKAAQRRRPS [Tat1_A5-6],321 nM,320 nM,–
"GRKKARAAARPS [Tat1_A5,7–9]",1530 nM,1530 nM,–
N=C(N)NCCC[C@H](NC(=O)CN)C(=O)N[C@@H](CCCCN)C(=O)N[C@@H](CCCCN)C(=O)N[C@@H](CCCNC(=N)N)C(=O)N[C@@H](CCCNC(=N)N)C(=O)N[C@@H](CCC(N)=O)C(=O)N[C@@H](CCCNC(=N)N)C(=O)N[C@@H](CCCNC(=N)N)C(=O)N[C@@H](CCCNC(=N)N)C(=O)N1CCC[C@H]1C(=O)N[C@@H](CO)C(=O)O [Tat1],–,–,"Degradation by the 20S proteasome (human 20S proteasome [2]; 1 mM peptide, 2.5 μg human 20S proteasome in 100 μl, 25 mM Tris, 0.25 mM EDTA pH 8.0, 37°C, 3 h, RP-HPLC C8, UV 223 nm, against control without 20S): No significant degradation"
GRAARRQRRRPS [Tat1_A3-4],245 nM,240 nM,–
N=C(N)NCCC[C@H](NC(=O)CN)C(=O)N[C@@H](CCCCN)C(=O)N[C@@H](CCCCN)C(=O)N[C@@H](CCCNC(=N)N)C(=O)N[C@@H](CCCNC(=N)N)C(=O)N[C@@H](CCC(N)=O)C(=O)N1Cc2ccccc2C[C@@H]1C(=O)N1[C@H](C(=O)N[C@@H](CCCNC(=N)N)C(=O)N2CCC[C@H]2C(=O)N[C@@H](CO)C(=O)O)C[C@@H]2CCCC[C@@H]21 [Tat1_8-9TO],170 nM,170 nM,EC50 (human 20S proteasome [3]; Repetition 1): 8880 ± 0.0559 nM; EC50 (human 20S proteasome [3]; Repetition 2): 10800 ± 0.0559 nM; EC50 (human 20S proteasome [3]; Repetition 3): 11500 ± 0.0559 nM; Kd (human 20S proteasome [3]; [7]): 10400 nM
octa-arginine,–,–,"IC50, proteasome peptidase activity in vitro (20S proteasome): high-nanomolar"
GAAARRQRRRPS [Tat1_A2-4],–,450 nM,Increase of IC50 relative to Tat1 (human 20S proteasome [1]; ChT-L activity of SDS activated 20S proteasome): about two times higher
GRKKRRAAARPS [Tat1_A7-9],281 nM,280 nM,–
N=C(N)NCCC[C@H](NC(=O)CN)C(=O)N[C@@H](CCCCN)C(=O)N[C@@H](CCCCN)C(=O)N[C@@H](CCCNC(=N)N)C(=O)N[C@@H](CCCNC(=N)N)C(=O)N[C@@H](CCC(N)=O)C(=O)N1Cc2ccccc2C[C@H]1C(=O)N1[C@@H](C(=O)N[C@@H](CCCNC(=N)N)C(=O)N2CCC[C@H]2C(=O)N[C@@H](CO)C(=O)O)C[C@H]2CCCC[C@H]21 [Tat1_8-9TOD],122 nM,120 nM,"IC50 lower than for counterpart with d-Tic,l-Oic unit (Tat1_8-9TO) (human 20S proteasome [1]; ChT-L activity): about 30%; EC50 (human 20S proteasome [3]; Repetition 1): 8320 ± 0.0423 nM; EC50 (human 20S proteasome [3]; Repetition 2): 7550 ± 0.0388 nM; EC50 (human 20S proteasome [3]; Repetition 3): 8560 ± 0.0538 nM; Kd (human 20S proteasome [3]; [7]): 8140 nM"
GRKKRAAARRPS [Tat1_A6-8],342 nM,340 nM,–
GRAAARQRRRPS [Tat1_A3-5],1570 nM,1570 nM,–
